Test results as given in patent US6538005B2, “Phenanthridine-N-oxides with PDE-IV inhibiting activity” (ALTANA Pharma AG, priority 1999, dated 2003).

Tests used:
PDE4 = assay: Inhibition of PDE4 activity (method of Bauer and Schwabe, adapted to microtiter plates); type: biochemical; settings: inhibitory concentration as −log IC50 (mol/l)
Source text: The activity test can be carried out, for example, according to the method of Bauer and Schwabe. For this, the method is adapted to microfiter plates (Naunyn-Schmiedeberg's Arch. Pharmacol. 1980, 311, 193-198). The PDE reaction takes place in the first step here. In a second step, the resulting 5′-nucleotide is cleaved by a 5′-nucleotidase of the snake venom of Crotalus atrox to the uncharged nucleoside. In the third step, the nucleoside is separated from the remaining charged substrate on ion-exchange columns. The columns are eluted directly into minivials, into which 2 ml of scintillator fluid are additionally added for counting, using 2 ml of 30 mM ammonium formate (pH 6.0).
The inhibitory values determined for the compounds according to the invention [inhibitory concentration as −log IC50 (mol/l)] follow from the following Table A, in which the numbers of the compounds correspond to the numbers of the examples.

melting point: 229 to 230 °C
SMILES: COc1ccc(NC(=O)c2cccc(C3=[N+]([O-])C4CCCCC4c4cc(OC)c(OC)cc43)c2)cc1 (single isomer, unassigned; (-)) [Compound 1, (−)-cis-8,9-Dimethoxy-6-[3-(4-methoxyphenylamido)phenyl]-1,2,3,4,4a,10b-hexahydrophenanthridine-5-N-oxide]
−log IC50 (PDE4): 6.73 mol/l
